In ChEMBL document CHEMBL5365481, “Design, Synthesis, and Activity Evaluation of Novel Dual-Target Inhibitors with Antifungal and Immunoregulatory Properties” (J Med Chem, 2023):
Values after ≈ are worked out from the molar mass of the structure shown. Active and inactive are the calls of the source. No cut-off for these calls is given here.

Legend:
Candida albicans [1] = experiment: Antifungal activity against Candida albicans ATCC SC5314 assessed as inhibition of fungal growth incubated for 72 hrs by CLSI based liquid medium microdilution method; format: functional
Cryptococcus neoformans = experiment: Antifungal activity against Cryptococcus neoformans ZKCC 2209 assessed as inhibition of fungal growth incubated for 72 hrs by CLSI based liquid medium microdilution method; format: functional
Aspergillus fumigatus = experiment: Antifungal activity against Aspergillus fumigatus KM8001 assessed as inhibition of fungal growth incubated for 72 hrs by CLSI based liquid medium microdilution method; format: functional
Candida tropicalis = experiment: Antifungal activity against Candida tropicalis ATCC 1369 assessed as inhibition of fungal growth incubated for 72 hrs by CLSI based liquid medium microdilution method; format: functional
Pichia kudriavzevii = experiment: Antifungal activity against Candida krusei ATCC 6258 assessed as inhibition of fungal growth incubated for 72 hrs by CLSI based liquid medium microdilution method; format: functional
Candida albicans [2] = experiment: In vivo antifungal activity against Candida albicans ATCC SC5314 infected in BALB/c mouse assessed as decrease in IFN-gamma expression level at 10 ug, ip for 14 days by Western blot analysis; format: functional, organism-based; details: dose 10.0 µg, time 14.0 day
[3] = molecular target: T1, Lanosterol 14-alpha demethylase (Candida albicans (strain SC5314 / ATCC MYA-2876) (Yeast), UniProt P10613); experiment: Inhibition of Candida albicans ATCC SC5314 CYP51 assessed as lanosterol content at 4 ug/ml measured after 16 hrs by GC-MS analysis relative to control; parameters: scale not given: the % may be the effect or the level left; details: at 4 µg/mL
T1 sequence (P10613 whole entry): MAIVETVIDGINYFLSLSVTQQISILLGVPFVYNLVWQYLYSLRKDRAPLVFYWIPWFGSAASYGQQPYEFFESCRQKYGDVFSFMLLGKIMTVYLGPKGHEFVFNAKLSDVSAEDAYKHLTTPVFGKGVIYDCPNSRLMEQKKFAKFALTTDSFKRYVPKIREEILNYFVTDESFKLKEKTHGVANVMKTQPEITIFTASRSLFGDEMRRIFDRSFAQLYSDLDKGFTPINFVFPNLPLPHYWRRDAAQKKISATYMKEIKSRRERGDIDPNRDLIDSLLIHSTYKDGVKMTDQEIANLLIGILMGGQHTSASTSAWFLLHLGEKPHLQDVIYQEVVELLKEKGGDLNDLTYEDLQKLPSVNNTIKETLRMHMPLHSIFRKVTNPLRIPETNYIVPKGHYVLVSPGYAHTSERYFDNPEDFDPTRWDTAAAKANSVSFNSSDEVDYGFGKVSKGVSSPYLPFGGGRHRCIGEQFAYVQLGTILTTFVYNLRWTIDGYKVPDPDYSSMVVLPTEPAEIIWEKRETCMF

Candida albicans [4] = experiment: Induction of apoptosis in Candida albicans ATCC SC5314 assessed as early apoptotic cells at 1 microM/ml incubated for 48 hrs by Hoechst 33258/PI staining based flow cytometry (Rvb= 5.1 +/- 0.3%); format: functional
[5] = molecular target: T1, Lanosterol 14-alpha demethylase; experiment: Inhibition of Candida albicans ATCC SC5314 CYP51 assessed as other unknown sterol content at 4 ug/ml measured after 16 hrs by GC-MS analysis (Rvb= 3.82%); parameters: scale not given: the % may be the effect or the level left; details: at 4 µg/mL
[6] = molecular target: T1, Lanosterol 14-alpha demethylase; experiment: Inhibition of Candida albicans ATCC SC5314 CYP51 assessed as eburicol content at 4 ug/ml measured after 16 hrs by GC-MS analysis (Rvb= 3.47%); parameters: scale not given: the % may be the effect or the level left; details: at 4 µg/mL
Candida albicans [7] = experiment: Induction of apoptosis in Candida albicans ATCC SC5314 assessed as normal cells at 1 microM/ml incubated for 48 hrs by Hoechst 33258/PI staining based flow cytometry (Rvb= 94.8 +/- 0.3%); format: functional
Candida albicans [8] = experiment: In vivo antifungal activity against Candida albicans ATCC SC5314 infected in BALB/c mouse assessed as decrease in COX2 expression level at 10 ug, ip for 14 days by Western blot analysis; format: functional, organism-based; details: dose 10.0 µg, time 14.0 day
[9] = molecular target: T1, Lanosterol 14-alpha demethylase; experiment: Inhibition of Candida albicans ATCC SC5314 CYP51 assessed as ergosterol content at 4 ug/ml measured after 16 hrs by GC-MS analysis (reference value: 92.71%); parameters: scale not given: the % may be the effect or the level left; details: at 4 µg/mL
Candida albicans [10] = experiment: Induction of ROS generation in Candida albicans ATCC SC5314 assessed as increase in fluorescence intensity at 1 microM/ml incubated for 48 hrs by fluorescent microscopy; format: functional, organism-based
[11] = molecular target: Programmed cell death protein 1/Programmed cell death 1 ligand 1 (Homo sapiens, UniProt Q9NZQ7); experiment: Inhibition of PD-1/PD-L1 interaction (unknown origin) incubated for 15 mins by ELISA; format: protein-complex assay
Sequence of Programmed cell death protein 1/Programmed cell death 1 ligand 1 (Q15116 whole entry): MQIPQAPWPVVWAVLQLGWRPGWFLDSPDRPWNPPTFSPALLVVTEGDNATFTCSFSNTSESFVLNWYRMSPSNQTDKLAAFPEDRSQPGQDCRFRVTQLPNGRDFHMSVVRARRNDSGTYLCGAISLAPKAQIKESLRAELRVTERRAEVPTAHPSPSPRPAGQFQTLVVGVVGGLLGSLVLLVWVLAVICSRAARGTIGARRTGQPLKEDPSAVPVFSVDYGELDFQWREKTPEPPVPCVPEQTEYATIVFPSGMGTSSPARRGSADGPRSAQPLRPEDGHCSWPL
Sequence of Programmed cell death protein 1/Programmed cell death 1 ligand 1 (Q9NZQ7 whole entry): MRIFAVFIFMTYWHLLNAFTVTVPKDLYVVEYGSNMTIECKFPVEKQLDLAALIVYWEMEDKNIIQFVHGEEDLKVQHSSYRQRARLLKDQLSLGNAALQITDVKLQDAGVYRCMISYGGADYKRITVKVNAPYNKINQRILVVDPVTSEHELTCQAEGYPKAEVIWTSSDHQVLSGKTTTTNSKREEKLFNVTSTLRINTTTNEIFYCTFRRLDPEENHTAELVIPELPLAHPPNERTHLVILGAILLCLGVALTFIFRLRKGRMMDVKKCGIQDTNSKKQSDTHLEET

Candida albicans [12] = experiment: Antifungal activity against fluconazole-resistant Candida albicans CaR assessed as inhibition of fungal growth incubated for 72 hrs by CLSI based liquid medium microdilution method; format: functional
Candida albicans [13] = experiment: Antifungal activity against Candida albicans ATCC SC5314 assessed as decrease in fungal cell density at 1 microM/ml incubated for 48 hrs by absorbance based assay; format: functional, organism-based
Candida albicans [14] = experiment: Antifungal activity against fluconazole-resistant Candida albicans 901 assessed as inhibition of fungal growth incubated for 72 hrs by CLSI based liquid medium microdilution method; format: functional
Candida albicans [15] = experiment: Induction of mitochondrial membrane depolarization in Candida albicans ATCC SC5314 assessed as polarized cells at 1 microM/ml incubated for 24 hrs by JC-1 staining based flow cytometry assay (reference value: 0.28 +/- 0.02%); format: functional
Candida albicans [16] = experiment: In vivo antifungal activity against Candida albicans ATCC SC5314 infected in BALB/c mouse assessed as decrease in PD-L1 expression level at 10 ug, ip for 14 days by Western blot analysis; format: functional, organism-based; details: dose 10.0 µg, time 14.0 day
Candida albicans [17] = experiment: Antifungal activity against Candida albicans ATCC SC5314 assessed as change in osmotic pressure at 1 microM/ml incubated for 48 hrs by absorbance based assay; format: functional, organism-based
[18] = molecular target: Programmed cell death 1 ligand 1 (Homo sapiens, UniProt Q9NZQ7); experiment: Binding affinity to PD-L1 (unknown origin) assessed as dissociation constant by SPR analysis
Sequence of Programmed cell death 1 ligand 1 (Q9NZQ7 whole entry): as above

Candida albicans [19] = experiment: Antifungal activity against fluconazole-resistant Candida albicans 632 assessed as inhibition of fungal growth incubated for 72 hrs by CLSI based liquid medium microdilution method; format: functional
Candida albicans [20] = experiment: In vivo antifungal activity against Candida albicans ATCC SC5314 infected in BALB/c mouse assessed as decrease in NLRP3 expression level at 10 ug, ip for 14 days by Western blot analysis; format: functional, organism-based; details: dose 10.0 µg, time 14.0 day
[21] = molecular target: T1, Lanosterol 14-alpha demethylase; experiment: Inhibition of Candida albicans ATCC SC5314 CYP51 using lanosterol as substrate incubated for 30 mins by HPLC assay
Candida albicans [22] = experiment: Induction of apoptosis in Candida albicans ATCC SC5314 assessed as necrotic cells at 1 microM/ml incubated for 48 hrs by Hoechst 33258/PI staining based flow cytometry (Rvb= 0.03 +/- 0.01%); format: functional
Candida albicans [23] = experiment: Antifungal activity against fluconazole-resistant Candida albicans 904 assessed as inhibition of fungal growth incubated for 72 hrs by CLSI based liquid medium microdilution method; format: functional
Candida albicans [24] = experiment: Induction of apoptosis in Candida albicans ATCC SC5314 assessed as late apoptotic cells at 1 microM/ml incubated for 48 hrs by Hoechst 33258/PI staining based flow cytometry (Rvb= 0.05 +/- 0.01%); format: functional
Candida albicans [25] = experiment: Induction of mitochondrial membrane depolarization in Candida albicans ATCC SC5314 assessed as depolarized cells at 1 microM/ml incubated for 24 hrs by JC-1 staining based flow cytometry assay (reference value: 0.3 to 5.1%); format: functional
Candida albicans [26] = experiment: Induction of apoptosis in Candida albicans ATCC SC5314 assessed as increase in blue fluorescence intensity at 1 microM/ml incubated for 48 hrs by Hoechst 33258/PI staining based fluorescence microscopy; format: functional, organism-based
Candida albicans [27] = experiment: Antifungal activity against Candida albicans ATCC SC5314 assessed as change in structural stability at 1 microM/ml incubated for 48 hrs by absorbance based assay; format: functional, organism-based
Candida albicans [28] = experiment: Induction of mitochondrial membrane depolarization in Candida albicans ATCC SC5314 assessed as normal cells at 1 microM/ml incubated for 24 hrs by JC-1 staining based flow cytometry assay (reference value: 94.4 +/- 1.15%); format: functional
Candida albicans [29] = experiment: Antifungal activity against fluconazole-resistant Candida albicans 17# assessed as inhibition of fungal growth incubated for 72 hrs by CLSI based liquid medium microdilution method; format: functional

## O=C(NC1CCN(C(=O)c2ccccc2)CC1)c1nc(-n2cncn2)c2ccccc2n1
Candida albicans [1]
  MIC50: 1 µg/mL (≈ 2.34 µM)
Cryptococcus neoformans
  MIC50: 2 µg/mL (≈ 4.68 µM)
Aspergillus fumigatus
  MIC50: 4 µg/mL (≈ 9.36 µM)
Candida tropicalis
  MIC50: 1 µg/mL (≈ 2.34 µM)
Pichia kudriavzevii
  MIC50: 1 µg/mL (≈ 2.34 µM)

## O=C(NC1CCCc2ccccc21)c1nc(-n2ccnc2)c2ccccc2n1 (stereo not drawn)
Candida albicans [1]
  MIC50: 4 µg/mL (≈ 10.8 µM)
Cryptococcus neoformans
  MIC50: 2 µg/mL (≈ 5.41 µM)
Aspergillus fumigatus
  MIC50: 4 µg/mL (≈ 10.8 µM)
Candida tropicalis
  MIC50: 4 µg/mL (≈ 10.8 µM)
Pichia kudriavzevii
  MIC50: 2 µg/mL (≈ 5.41 µM)

## CS(=O)(=O)c1ccc(NC(=O)c2nc(-n3cncn3)c3cc(Cl)ccc3n2)cc1
Candida albicans [1]
  MIC50: 0.5 µg/mL (≈ 1.17 µM)
Cryptococcus neoformans
  MIC50: 0.5 µg/mL (≈ 1.17 µM)
Aspergillus fumigatus
  MIC50: 2 µg/mL (≈ 4.66 µM)
Candida tropicalis
  MIC50: 1 µg/mL (≈ 2.33 µM)
Pichia kudriavzevii
  MIC50: 1 µg/mL (≈ 2.33 µM)

## O=C(NCc1ccccc1)c1nc(-n2cncn2)c2ccccc2n1
Candida albicans [1]
  MIC50: 2 µg/mL (≈ 6.05 µM)
Cryptococcus neoformans
  MIC50: 2 µg/mL (≈ 6.05 µM)
Aspergillus fumigatus
  MIC50: > 8 µg/mL
Candida tropicalis
  MIC50: 1 µg/mL (≈ 3.03 µM)
Pichia kudriavzevii
  MIC50: 4 µg/mL (≈ 12.1 µM)

## CS(=O)(=O)c1ccc(NC(=O)c2nc(-n3ccnc3)c3ccccc3n2)cc1
Candida albicans [1]
  MIC50: 2 µg/mL (≈ 5.08 µM)
Cryptococcus neoformans
  MIC50: 1 µg/mL (≈ 2.54 µM)
Aspergillus fumigatus
  MIC50: > 8 µg/mL
Candida tropicalis
  MIC50: 4 µg/mL (≈ 10.2 µM)
Pichia kudriavzevii
  MIC50: 4 µg/mL (≈ 10.2 µM)

## CS(=O)(=O)c1ccc(NC(=O)c2nc(-n3ccnc3)c3cc(Cl)ccc3n2)cc1
Candida albicans [1]
  MIC50: 1 µg/mL (≈ 2.34 µM)
Cryptococcus neoformans
  MIC50: 0.5 µg/mL (≈ 1.17 µM)
Aspergillus fumigatus
  MIC50: 4 µg/mL (≈ 9.35 µM)
Candida tropicalis
  MIC50: 2 µg/mL (≈ 4.67 µM)
Pichia kudriavzevii
  MIC50: 2 µg/mL (≈ 4.67 µM)

## CC(=O)c1ccc(NC(=O)c2nc(-n3ccnc3)c3ccccc3n2)cc1
Candida albicans [2]
  Activity: Active
[3]
  Activity: 20.64%
Candida albicans [4]
  Activity: 44.8%
[5]
  Activity: 6.14%
Candida albicans [1]
  MIC50: 0.5 µg/mL (≈ 1.4 µM)
[6]
  Activity: 41.69%
Candida albicans [7]
  Activity: 55.1%
Candida albicans [8]
  Activity: Active
[9]
  Activity: 21.53%
Candida albicans [10]
  Activity: Active
[11]
  IC50: 83 nM
Candida albicans [12]
  MIC50: 4 µg/mL (≈ 11.2 µM)
Cryptococcus neoformans
  MIC50: 1 µg/mL (≈ 2.8 µM)
Aspergillus fumigatus
  MIC50: 2 µg/mL (≈ 5.6 µM)
Candida albicans [13]
  Activity: Active
Candida albicans [14]
  MIC50: > 8 µg/mL
Candida albicans [15]
  Activity: 0.07%
Candida albicans [16]
  Activity: Active
Candida albicans [17]
  Activity: Active
[18]
  Kd: 34.5 nM
Candida albicans [19]
  MIC50: 2 µg/mL (≈ 5.6 µM)
Candida albicans [20]
  Activity: Active
Candida tropicalis
  MIC50: 1 µg/mL (≈ 2.8 µM)
[21]
  IC50: 884 nM
Pichia kudriavzevii
  MIC50: 1 µg/mL (≈ 2.8 µM)
Candida albicans [22]
  Activity: 0.03%
Candida albicans [23]
  MIC50: 4 µg/mL (≈ 11.2 µM)
Candida albicans [24]
  Activity: 0.13%
Candida albicans [25]
  Activity: 0.16%
Candida albicans [26]
  Activity: Active
Candida albicans [27]
  Activity: Active
Candida albicans [28]
  Activity: 77.1%
Candida albicans [29]
  MIC50: 2 µg/mL (≈ 5.6 µM)

## CC(C)c1ccc(C(=O)N2CCC(NC(=O)c3nc(-n4cncn4)c4ccccc4n3)CC2)cc1
Candida albicans [1]
  MIC50: 0.5 µg/mL (≈ 1.06 µM)
Cryptococcus neoformans
  MIC50: 2 µg/mL (≈ 4.26 µM)
Aspergillus fumigatus
  MIC50: 4 µg/mL (≈ 8.52 µM)
Candida tropicalis
  MIC50: 1 µg/mL (≈ 2.13 µM)
Pichia kudriavzevii
  MIC50: 0.5 µg/mL (≈ 1.06 µM)

## O=C(NC1CCCc2ccccc21)c1nc(-n2ccnc2)c2cc(Cl)ccc2n1 (stereo not drawn)
Candida albicans [1]
  MIC50: > 8 µg/mL
Cryptococcus neoformans
  MIC50: 2 µg/mL (≈ 4.95 µM)
Aspergillus fumigatus
  MIC50: > 8 µg/mL
Candida tropicalis
  MIC50: 4 µg/mL (≈ 9.9 µM)
Pichia kudriavzevii
  MIC50: 4 µg/mL (≈ 9.9 µM)

## O=C(NCc1ccccc1)c1nc(-n2ccnc2)c2cc(Cl)ccc2n1
Candida albicans [1]
  MIC50: 2 µg/mL (≈ 5.5 µM)
Cryptococcus neoformans
  MIC50: 4 µg/mL (≈ 11 µM)
Aspergillus fumigatus
  MIC50: 4 µg/mL (≈ 11 µM)
Candida tropicalis
  MIC50: 2 µg/mL (≈ 5.5 µM)
Pichia kudriavzevii
  MIC50: 1 µg/mL (≈ 2.75 µM)

## CC(=O)c1ccc(NC(=O)c2nc(-n3cncn3)c3ccccc3n2)cc1
Candida albicans [1]
  MIC50: 0.5 µg/mL (≈ 1.4 µM)
Cryptococcus neoformans
  MIC50: 0.5 µg/mL (≈ 1.4 µM)
Aspergillus fumigatus
  MIC50: 2 µg/mL (≈ 5.58 µM)
Candida tropicalis
  MIC50: 0.5 µg/mL (≈ 1.4 µM)
Pichia kudriavzevii
  MIC50: 1 µg/mL (≈ 2.79 µM)

## O=C(NCc1ccccc1)c1nc(-n2ccnc2)c2ccccc2n1
Candida albicans [1]
  MIC50: 2 µg/mL (≈ 6.07 µM)
Cryptococcus neoformans
  MIC50: 4 µg/mL (≈ 12.1 µM)
Aspergillus fumigatus
  MIC50: > 8 µg/mL
Candida tropicalis
  MIC50: 2 µg/mL (≈ 6.07 µM)
Pichia kudriavzevii
  MIC50: 1 µg/mL (≈ 3.04 µM)
